This note sets out measurements from US9708334B2, “Substituted 2,4,5,6-tetrahydropyrrolo[3,4-c]pyrazole and 4,5,6,7-tetrahydro-2H-pyrazolo[4,3-c]pyridine compounds as GlyT1 inhibitors” (DART NEUROSCIENCE (CAYMAN) LTD., priority 2014, dated 2017).

The target in the assay is T1, GlyT1 (Homo sapiens, UniProt P48067).
T1 construct: expressed in transfected cells
T1 sequence (P48067 1-706): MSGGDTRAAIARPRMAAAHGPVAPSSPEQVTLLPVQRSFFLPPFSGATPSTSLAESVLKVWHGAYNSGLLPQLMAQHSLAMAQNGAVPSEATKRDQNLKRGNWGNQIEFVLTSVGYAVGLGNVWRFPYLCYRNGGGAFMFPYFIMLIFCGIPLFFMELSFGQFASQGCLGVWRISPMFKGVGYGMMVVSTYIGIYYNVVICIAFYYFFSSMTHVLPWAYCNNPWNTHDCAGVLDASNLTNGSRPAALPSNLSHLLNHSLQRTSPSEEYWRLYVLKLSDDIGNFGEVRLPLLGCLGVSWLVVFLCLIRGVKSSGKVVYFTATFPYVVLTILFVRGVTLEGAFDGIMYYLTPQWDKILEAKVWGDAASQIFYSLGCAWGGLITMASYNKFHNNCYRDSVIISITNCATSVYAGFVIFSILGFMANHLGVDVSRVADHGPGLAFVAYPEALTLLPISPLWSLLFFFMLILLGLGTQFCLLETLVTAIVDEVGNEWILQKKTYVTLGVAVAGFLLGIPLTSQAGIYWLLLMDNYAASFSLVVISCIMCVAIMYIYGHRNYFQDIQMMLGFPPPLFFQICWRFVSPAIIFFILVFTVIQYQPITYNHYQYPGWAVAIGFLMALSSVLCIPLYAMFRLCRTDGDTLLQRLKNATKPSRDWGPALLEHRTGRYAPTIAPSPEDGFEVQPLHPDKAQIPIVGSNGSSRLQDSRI
Briefly: Glycine Transporter 1 (GlyT1) uptake assay, scintillation proximity assay of [14C]-glycine uptake. It counts as cell-based. Particulars: SPA, four parameter logistic fit, read-out: GlyT1 (pIC50) (converted). In outline:
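[14C]-glycine uptake read by scintillation proximity on a plate counter. IC50 from four-parameter logistic fit of dose-response data.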
In general terms: SPA uses beads or plates that emit light when radiolabelled molecules are held near them.
Consider `COc1c(C#N)ccc(OC(C)C(F)(F)F)c1C(=O)N1CCc2nn(-c3ccc(F)cc3F)cc2C1` (centres unmarked) [Example 194, 3-[2-(2 4-Difluorophenyl)-2H 4H 5H 6H 7H-pyrazolo[4,3-c]pyridine-5-carbonyl]-2-methoxy-4-[(1 1 1-trifluoropropan-2-yl)oxy]benzonitrile], for which the IC50 is 100 to 1000 nM.
As for `CC(Oc1ccc(C#N)c(Cl)c1C(=O)N1CCc2c(cnn2Cc2ccccc2)C1)C(F)(F)F` (centres unmarked) [Example 195, 3-{1-Benzyl-1H 4H 5H 6H 7H-pyrazolo[4,3-c]pyridine-5-carbonyl}-2-chloro-4-[(1 1 1-trifluoropropan-2-yl)oxy]benzonitrile], the IC50 is 100 to 1000 nM.
On to `CC(Oc1ccc(C(N)=O)c(Cl)c1C(=O)N1CCc2nn(-c3ccc(F)cc3)cc2C1)C(F)(F)F` (centres unmarked) [Example 196, 2-Chloro-3-[2-(4-fluorophenyl)-2H 4H 5H 6H 7H-pyrazolo[4,3-c]pyridine-5-carbonyl]-4-[(1 1 1-trifluoropropan-2-yl)oxy]benzamide], for which the IC50 was 100 to 1000 nM.
Under `CC(Oc1ccc(C#N)c(Cl)c1C(=O)N1CCc2nn(-c3ccc(F)cc3)c(O)c2C1)C(F)(F)F` (centres unmarked) [Example 197, 2-Chloro-3-[2-(4-fluorophenyl)-3-hydroxy-2H 4H 5H 6H 7H-pyrazolo[4,3-c]pyridine-5-carbonyl]-4-[(1 1 1-trifluoropropan-2-yl)oxy]benzonitrile] stands more than 10000 nM; under `COc1c(S(C)(=O)=O)ccc(OC(C)C(F)(F)F)c1C(=O)N1CCc2nn(-c3ccc(F)cc3)cc2C1` (centres unmarked) [Example 198, 2-(4-Fluorophenyl)-5-{3-methanesulfonyl-2-methoxy-6-[(1 1 1-trifluoropropan-2-yl)oxy]benzoyl}-2H 4H 5H 6H 7H-pyrazolo[4,3-c]pyridine], less than 100 nM; under `N#Cc1ccc(C2(F)CCOCC2)c(C(=O)N2CCc3nn(-c4ccc(F)cc4)cc3C2)c1F` [Example 199, 2-Fluoro-4-(4-fluorooxan-4-yl)-3-[2-(4-fluorophenyl)-2H 4H 5H 6H 7H-pyrazolo[4,3-c]pyridine-5-carbonyl]benzonitrile], 1000 to 10000 nM.
With `CC(Oc1ccc(C(=O)N(C)C)c(Cl)c1C(=O)N1CCc2nn(-c3ccc(F)cc3)cc2C1)C(F)(F)F` (centres unmarked) [Example 200, 2-Chloro-3-[2-(4-fluorophenyl)-2H 4H 5H 6H 7H-pyrazolo[4,3-c]pyridine-5-carbonyl]-N N-dimethyl-4-[(1 1 1-trifluoropropan-2-yl)oxy]benzamide] the figure was 1000 to 10000 nM; with `CC(Oc1ccc(C#N)c(Cl)c1C(=O)N1CCc2nn(-c3ccc(F)cn3)cc2C1)C(F)(F)F` (centres unmarked) [Example 201, 2-Chloro-3-[2-(5-fluoropyridin-2-yl)-2H 4H 5H 6H 7H-pyrazolo[4,3-c]pyridine-5-carbonyl]-4-[(1 1 1-trifluoropropan-2-yl)oxy]benzonitrile], 100 to 1000 nM.
Under `COc1c(C#N)ccc(OC(C)C(F)(F)F)c1C(=O)N1CCc2nn(-c3ccc(F)cn3)cc2C1` (centres unmarked) [Example 202, 3-[2-(5-Fluoropyridin-2-yl)-2H 4H 5H 6H 7H-pyrazolo[4,3-c]pyridine-5-carbonyl]-2-methoxy-4-[(1 1 1-trifluoropropan-2-yl)oxy]benzonitrile] stands 100 to 1000 nM.
`CC(Oc1ccc(C#N)c(Cl)c1C(=O)N1CCc2nn(C)cc2C1)C(F)(F)F` (centres unmarked) [Example 203, 2-Chloro-3-{2-methyl-2H 4H 5H 6H 7H-pyrazolo[4,3-c]pyridine-5-carbonyl}-4-[(1 1 1-trifluoropropan-2-yl)oxy]benzonitrile]: the IC50 is 1000 to 10000 nM.
As for `COc1c(C#N)ccc(OC(C)C(F)(F)F)c1C(=O)N1CCc2nn(C)cc2C1` (centres unmarked) [Example 204, 2-Methoxy-3-{2-methyl-2H 4H 5H 6H 7H-pyrazolo[4,3-c]pyridine-5-carbonyl}-4-[(1 1 1-trifluoropropan-2-yl)oxy]benzonitrile], the IC50 is 100 to 1000 nM.
With `COc1cccc(-n2cc3c(n2)CCN(C(=O)c2c(OC(C)C(F)(F)F)ccc(C#N)c2Cl)C3)c1` (centres unmarked) [Example 205, 2-Chloro-3-[2-(3-methoxyphenyl)-2H 4H 5H 6H 7H-pyrazolo[4,3-c]pyridine-5-carbonyl]-4-[(1 1 1-trifluoropropan-2-yl)oxy]benzonitrile] the figure was 100 to 1000 nM; with `COc1ccc(-n2cc3c(n2)CCN(C(=O)c2c(OC(C)C(F)(F)F)ccc(C#N)c2Cl)C3)cc1` (centres unmarked) [Example 206, 2-Chloro-3-[2-(4-methoxyphenyl)-2H 4H 5H 6H 7H-pyrazolo[4,3-c]pyridine-5-carbonyl]-4-[(1 1 1-trifluoropropan-2-yl)oxy]benzonitrile], 100 to 1000 nM; with `COc1ccc(-n2cc3c(n2)CCN(C(=O)c2c(OC(C)C(F)(F)F)ccc(C#N)c2OC)C3)cc1` (centres unmarked) [Example 207, 2-Methoxy-3-[2-(4-methoxyphenyl)-2H 4H 5H 6H 7H-pyrazolo[4,3-c]pyridine-5-carbonyl]-4-[(1 1 1-trifluoropropan-2-yl)oxy]benzonitrile], 100 to 1000 nM.
Under `CCC(F)(CC)c1ccc(C#N)c(OC)c1C(=O)N1CCc2nn(-c3ccc(F)cc3)cc2C1` [Example 208] stands 1000 to 10000 nM.
With `COc1c(C#N)ccc(OC(C)C(F)(F)F)c1C(=O)N1CCc2c(cnn2-c2ccc(F)cn2)C1` (centres unmarked) [Example 209, 3-[1-(5-Fluoropyridin-2-yl)-1H 4H 5H 6H 7H-pyrazolo[4,3-c]pyridine-5-carbonyl]-2-methoxy-4-[(1 1 1-trifluoropropan-2-yl)oxy]benzonitrile] the figure was less than 100 nM; with `CC(Oc1ccc(C#N)c(Cl)c1C(=O)N1CCc2c(cnn2-c2ccc(F)cn2)C1)C(F)(F)F` (centres unmarked) [Example 210, 2-Chloro-3-[1-(5-fluoropyridin-2-yl)-1H 4H 5H 6H 7H-pyrazolo[4,3-c]pyridine-5-carbonyl]-4-[(1 1 1-trifluoropropan-2-yl)oxy]benzonitrile], less than 100 nM; with `CC(Oc1ccc(C#N)c(Cl)c1C(=O)N1CCc2nn(-c3cccnc3)cc2C1)C(F)(F)F` (centres unmarked) [Example 211, 2-Chloro-3[2-(pyridin-3-yl)-2H 4H 5H 6H 7H-pyrazolo[4,3-c]pyridine-5-carbonyl]-4-[(1 1 1-trifluoropropan-2-yl)oxy]benzonitrile], 100 to 1000 nM.
For `COc1c(C#N)ccc(C2(F)CCC2)c1C(=O)N1CCc2nn(-c3ccc(F)cn3)cc2C1` [Example 212, 4-(1-Fluorocyclobutyl)-3-[2-(5-fluoropyridin-2-yl)-2H 4H 5H 6H 7H-pyrazolo[4,3-c]pyridine-5-carbonyl]-2-methoxybenzonitrile], the IC50 was 100 to 1000 nM.
With `COc1c(C#N)ccc(OC(C)C(F)(F)F)c1C(=O)N1CCc2nn(-c3cccnc3)cc2C1` (centres unmarked) [Example 213, 2-Methoxy-3-[2-(pyridin-3-yl)-2H 4H 5H 6H 7H-pyrazolo[4,3-c]pyridine-5-carbonyl]-4-[(1 1 1-trifluoropropan-2-yl)oxy]benzonitrile] the figure was less than 100 nM; with `CC(Oc1ccc(C#N)c(Cl)c1C(=O)N1CCc2c(cnn2C2CCCCC2)C1)C(F)(F)F` (centres unmarked) [Example 214, 2-Chloro-3-{1-cyclohexyl-1H 4H 5H 6H 7H-pyrazolo[4,3-c]pyridine-5-carbonyl}-4-[(1 1 1-trifluoropropan-2-yl)oxy]benzonitrile.], 100 to 1000 nM; with `COc1c(C#N)ccc(OC(C)C(F)(F)F)c1C(=O)N1CCc2c(cnn2C2CCCCC2)C1` (centres unmarked) [Example 215, 3-{1-Cyclohexyl-1H 4H 5H 6H 7H-pyrazolo[4,3-c]pyridine-5-carbonyl}-2-methoxy-4-[(1 1 1-trifluoropropan-2-yl)oxy]benzonitrile], less than 100 nM.
With `CC(Oc1ccc(C#N)c(Cl)c1C(=O)N1CCc2nn(-c3ccccn3)cc2C1)C(F)(F)F` (centres unmarked) [Example 216, 2-Chloro-3-[2-(pyridin-2-yl)-2H 4H 5H 6H 7H-pyrazolo[4,3-c]pyridine-5-carbonyl]-4-[(1 1 1-trifluoropropan-2-yl)oxy]benzonitrile] the figure was 100 to 1000 nM.
Regarding `COc1c(C#N)ccc(OC(C)C(F)(F)F)c1C(=O)N1CCc2nn(-c3ccccn3)cc2C1` (centres unmarked) [Example 217, 2-Methoxy-3-[2-(pyridin-2-yl)-2H 4H 5H 6H 7H-pyrazolo[4,3-c]pyridine-5-carbonyl]-4-[(1 1 1-trifluoropropan-2-yl)oxy]benzonitrile], the IC50 is 100 to 1000 nM.
In the case of `COc1c(C#N)ccc(OC(C)C(F)(F)F)c1C(=O)N1CCc2c(cnn2-c2cccnc2)C1` (centres unmarked) [Example 218, 2-Methoxy-3-[1-(pyridin-3-yl)-1H 4H 5H 6H 7H-pyrazolo[4,3-c]pyridine-5-carbonyl]-4-[(1 1 1-trifluoropropan-2-yl)oxy]benzonitrile], the IC50 was less than 100 nM.
Under `CC(Oc1ccc(C#N)c(Cl)c1C(=O)N1CCc2nn(-c3ccncc3)cc2C1)C(F)(F)F` (centres unmarked) [Example 219, 2-Chloro-3-[2-(pyridin-4-yl)-2H 4H 5H 6H 7H-pyrazolo[4,3-c]pyridine-5-carbonyl]-4-[(1 1 1-trifluoropropan-2-yl)oxy]benzonitrile] stands less than 100 nM.
